# Test results reported in ChEMBL document CHEMBL1201862, “PubChem BioAssay data set” (2004).
#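 Exposure lasted 48 hours, with cells grown in 96-well plates and compounds tested at five concentrations. At the GI50, growth is halved.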 Active and inactive are the calls of the source. Cut-off read from the data, not from the text of the source: active = GI50 up to about 1.1 µM and inactive = higher.
# What was measured:
# Test in all cases: NCI tumour cell line growth inhibition, 48 h
# [1] = system: Malme-3M
# [2] = system: HOP-62
# [3] = system: M14
# [4] = system: EKVX
# [5] = system: KM12
# [6] = system: LOX IMVI
# [7] = system: OVCAR-4
# [8] = system: OVCAR-3
# [9] = system: SW-620
# [10] = system: SNB-19
# [11] = system: IGROV-1
# [12] = system: A549
# [13] = system: COLO 205
# [14] = system: NCI-H226
# [15] = system: UO-31
# [16] = system: CAKI-1
# [17] = system: K562
# [18] = system: UACC-62
# [19] = system: SR
# [20] = system: HCT-116
# [21] = system: ACHN
# [22] = system: HCC 2998
# [23] = system: HCT-15
# [24] = system: DU-145
# [25] = system: CCRF-CEM
# [26] = system: HL-60
# [27] = system: 786-0
# [28] = system: SN12C
# [29] = system: MDA-N
# [30] = system: RXF 393
# [31] = system: SK-MEL-2
# [32] = system: NCI-H460
# [33] = system: TK-10
# [34] = system: NCI/ADR-RES
# [35] = system: OVCAR-5
# [36] = system: NCI-H522
# [37] = system: MDA-MB-435
# [38] = system: A498
# [39] = system: OVCAR-8
# [40] = system: HT-29
# [41] = system: SF-539
# [42] = system: HOP-92
# [43] = system: SK-MEL-28
# [44] = system: SK-MEL-5
# [45] = system: MOLT-4
# [46] = system: UACC-257
# [47] = system: SNB-75
# [48] = system: SF-268
# [49] = system: NCI-H23
# [50] = system: Hs-578T
# [51] = system: MDA-MB-231
# [52] = system: RPMI-8226
compound,measurement,setting,value
COc1ccccc1Cn1[nH]c(=O)c2cc([N+](=O)[O-])ccc21,GI50,[1],> 100 µM (inactive)
same,GI50,[2],> 100 µM (inactive)
same,GI50,[3],> 100 µM (inactive)
same,GI50,[4],> 100 µM (inactive)
same,GI50,[5],> 100 µM (inactive)
same,GI50,[6],> 100 µM (inactive)
same,GI50,[7],> 100 µM (inactive)
same,GI50,[8],27.9 µM (inactive)
same,GI50,[9],84.9 µM (inactive)
same,GI50,[10],61.2 µM (inactive)
same,GI50,[11],43.5 µM (inactive)
same,GI50,[12],93.1 µM (inactive)
same,GI50,[13],> 100 µM (inactive)
same,GI50,[14],> 100 µM (inactive)
same,GI50,[15],> 100 µM (inactive)
same,GI50,[16],> 100 µM (inactive)
same,GI50,[17],51.6 µM (inactive)
same,GI50,[18],76 µM (inactive)
same,GI50,[19],> 100 µM (inactive)
same,GI50,[20],> 100 µM (inactive)
same,GI50,[21],75 µM (inactive)
same,GI50,[22],65.9 µM (inactive)
same,GI50,[23],> 100 µM
same,GI50,[24],> 100 µM (inactive)
same,GI50,[25],> 100 µM (inactive)
same,GI50,[26],86.5 µM (inactive)
same,GI50,[27],42 µM (inactive)
same,GI50,[28],> 100 µM (inactive)
same,GI50,[29],47.8 µM (inactive)
same,GI50,[30],25.8 µM (inactive)
same,GI50,[31],24.4 µM (inactive)
same,GI50,[32],> 100 µM (inactive)
same,GI50,[33],> 100 µM (inactive)
same,GI50,[34],75.5 µM (inactive)
same,GI50,[35],> 100 µM (inactive)
same,GI50,[36],> 100 µM (inactive)
same,GI50,[37],43.9 µM (inactive)
same,GI50,[38],26.5 µM (inactive)
same,GI50,[39],> 100 µM (inactive)
same,GI50,[40],> 100 µM (inactive)
same,GI50,[41],> 100 µM (inactive)
same,GI50,[42],24.7 µM (inactive)
same,GI50,[43],> 100 µM (inactive)
same,GI50,[44],> 100 µM (inactive)
same,GI50,[45],> 100 µM (inactive)
same,GI50,[46],> 100 µM (inactive)
same,GI50,[47],25.8 µM (inactive)
same,GI50,[48],48.5 µM (inactive)
same,GI50,[49],> 100 µM (inactive)
same,GI50,[50],23.7 µM (inactive)
same,GI50,[51],64.4 µM (inactive)
same,GI50,[52],> 100 µM (inactive)
